Measured values as given in ChEMBL document CHEMBL1153976, “Synthesis and cytotoxicity of 2-cyano-28-hydroxy-lup-1-en-3-ones” (Bioorg Med Chem Lett, 2009).

Key:
Daoy = assay: Antiproliferative activity against human DaOY cells after 72 hrs by MTS assay; type: cell-based
MCF7 = assay: Antiproliferative activity against human MCF7 cells after 72 hrs by MTS assay; type: functional, cell-based; conditions: MCF7, 72 h
HT-29 = assay: Antiproliferative activity against human HT-29 cells after 72 hrs by MTS assay; type: functional, cell-based; conditions: HT-29, 72 h
OVCAR-3 = assay: Antiproliferative activity against human OVCAR-3 cells after 120 hrs by MTS assay; type: functional, cell-based; conditions: OVCAR-3, 120 h
[1] = Antiproliferative activity against human LN229 cells after 72 hrs by MTS assay; type: functional, cell-based; conditions: LN-229, 72 h
SK-MEL-2 [2] = assay: Antiproliferative activity against human SK-MEL-2 cells after 72 hrs by MTS assay; type: functional, cell-based; conditions: SK-MEL-2, 72 h
A-375 = assay: Antiproliferative activity against human A375 cells after 72 hrs by MTS assay; type: functional, cell-based; conditions: A-375, 72 h
SK-MEL-2 [3] = assay: Induction of apoptosis in human SK-MEL-2 cells assessed as increase in caspase activation at 5 uM after 8 hrs by homogenous assay relative to control; type: functional
SK-MEL-2 [4] = assay: Induction of apoptosis in human SK-MEL-2 cells assessed as increase in caspase activation at 50 uM after 8 hrs by homogenous assay relative to control; type: functional
SK-MEL-2 [5] = assay: Induction of apoptosis in human SK-MEL-2 cells assessed as apoptotic cells at 50 uM after 8 hrs by annexin V assay; type: functional
SK-MEL-2 [6] = assay: Induction of apoptosis in human SK-MEL-2 cells assessed as apoptotic cells at 50 uM after 8 hrs by annexin V assay in presence of z-VAD; type: functional
SK-MEL-2 [7] = assay: Induction of apoptosis in human SK-MEL-2 cells assessed as necrotic cells at 50 uM after 8 hrs by annexin V assay; type: functional
SK-MEL-2 [8] = assay: Induction of apoptosis in human SK-MEL-2 cells assessed as necrotic cells at 50 uM after 8 hrs by annexin V assay in presence of z-VAD; type: functional

SMILES | IC50 (Daoy) [µM] | IC50 (MCF7) [µM] | IC50 (HT-29) [µM] | IC50 (OVCAR-3) [µM] | IC50 [1] [µM] | IC50 (SK-MEL-2 [2]) [µM] | IC50 (A-375) [µM] | Activity (SK-MEL-2 [3]) [%] | fold change (FC) (SK-MEL-2 [4]) | fold change (FC) (SK-MEL-2 [3]) | Activity (SK-MEL-2 [5]) [%] | Activity (SK-MEL-2 [6]) [%] | Activity (SK-MEL-2 [7]) [%] | Activity (SK-MEL-2 [8]) [%]
C=C(C)[C@@H]1CC[C@]2(CO)CC[C@]3(C)[C@H](CC[C@@H]4[C@@]5(C)Cc6cnoc6C(C)(C)[C@@H]5CC[C@]43C)[C@@H]12 | 8 | 25 | 10 | 60 | > 75 | 8 |  |  |  |  |  |  |  | 
C=C(C)[C@@H]1CC[C@]2(C(=O)O)CC[C@]3(C)[C@H](CC[C@@H]4[C@@]5(C)C=C(C#N)C(=O)C(C)(C)[C@@H]5CC[C@]43C)[C@@H]12 | > 75 | > 75 | 38 | > 75 | 18 | > 75 | > 75 |  |  |  |  |  |  | 
C=C(C)[C@@H]1CC[C@]2(C(=O)O)CC[C@]3(C)[C@H](CC[C@@H]4[C@@]5(C)CC[C@H](O)C(C)(C)[C@@H]5CC[C@]43C)[C@@H]12 [BETULINIC ACID] | 31 | 50 | 37 | 59 | 61 | 33 | 51 | 70 | 2.6 |  |  |  |  | 
C=C(C)[C@@H]1CC[C@]2(COC3CCCCO3)CC[C@]3(C)[C@H](CC[C@@H]4[C@@]5(C)C=C(C#N)C(=O)C(C)(C)[C@@H]5CC[C@]43C)[C@@H]12 (some centres undefined) | 14 | > 75 | > 75 | > 75 | 21 | 23 | 12 |  |  |  |  |  |  | 
C=C(C)[C@@H]1CC[C@]2(C=O)CC[C@]3(C)[C@H](CC[C@@H]4[C@@]5(C)C=C(C#N)C(=O)C(C)(C)[C@@H]5CC[C@]43C)[C@@H]12 | 13 | > 75 | 49 | > 75 | > 75 | 40 | 7 |  |  |  |  |  |  | 
C=C(C)[C@@H]1CC[C@]2(CO)CC[C@]3(C)[C@H](CC[C@@H]4[C@@]5(C)C=C(C#N)C(=O)C(C)(C)[C@@H]5CC[C@]43C)[C@@H]12 | 8 | 25 | 8 | 7 | 6 | 7 | 6 |  | 8 | 2 | 24 | 7 | 3 | 4
CC(C)[C@@H]1CC[C@]2(CO)CC[C@]3(C)[C@H](CC[C@@H]4[C@@]5(C)C=C(C#N)C(=O)C(C)(C)[C@@H]5CC[C@]43C)[C@@H]12 | 9 | > 75 | 7 | 8 |  | 6 | 4 |  |  |  |  |  |  | 
C=C(C)[C@@H]1CC[C@]2(COC3CCCCO3)CC[C@]3(C)[C@H](CC[C@@H]4[C@@]5(C)CC(C#N)C(=O)C(C)(C)[C@@H]5CC[C@]43C)[C@@H]12 (some centres undefined) | 29 | 25 | > 75 | > 75 | > 75 | 19 | 38 |  |  |  |  |  |  | 
CC(C)[C@@H]1CC[C@]2(CO)CC[C@]3(C)[C@H](CC[C@@H]4[C@@]5(C)Cc6cnoc6C(C)(C)[C@@H]5CC[C@]43C)[C@@H]12 | 7 | > 75 | 75 | 75 | > 75 | 8 | 10 |  |  |  |  |  |  | 
C=C(C)[C@@H]1CC[C@]2(CO)CC[C@]3(C)[C@H](CC[C@@H]4[C@@]5(C)CC(C#N)C(=O)C(C)(C)[C@@H]5CC[C@]43C)[C@@H]12 (some centres undefined) | 44 | 68 | 72 | > 75 | > 75 | 42 | > 75 |  |  |  |  |  |  | 
CC(C)[C@@H]1CC[C@]2(COC3CCCCO3)CC[C@]3(C)[C@H](CC[C@@H]4[C@@]5(C)CC(C#N)C(=O)C(C)(C)[C@@H]5CC[C@]43C)[C@@H]12 (some centres undefined) | 21 | > 75 | > 75 |  | 45 | 25 | 48 |  |  |  |  |  |  | 
CC(C)[C@@H]1CC[C@]2(C(=O)O)CC[C@]3(C)[C@H](CC[C@@H]4[C@@]5(C)C=C(C#N)C(=O)C(C)(C)[C@@H]5CC[C@]43C)[C@@H]12 | 71 | 59 | 18 | 24 | 30 | 59 | 16 |  |  |  |  |  |  | 
